This passage reports IC50 results from patent US12545685B2 (Daiichi Sankyo Company, Limited, priority 2011, dated 2026).

For this assay, the target named is T1, Mdm2/p53 binding (GST-Mdm2 / His-p53) (Homo sapiens, UniProt Q00987, L33E).
T1 construct: Mdm2 partial protein having Mdm2 amino acids at positions 25 to 108
T1 sequence (Q00987 25-108 L33E): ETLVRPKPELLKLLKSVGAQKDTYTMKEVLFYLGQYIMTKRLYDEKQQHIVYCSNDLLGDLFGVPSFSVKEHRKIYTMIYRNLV
The experiment in a line: Mdm2/p53 binding assay (HTRF, His-p53 and GST-Mdm2). Conditions: His-p53 (aa 1-132) and GST-Mdm2 (aa 25-108, L33E) 6.25 nM each; 25°C, 1 hour; values given as ranges. Put shortly: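 His-p53 (aa 1–132) and GST-Mdm2 (aa 25–108, L33E) were prepared at 6.25 nM each in the protein dilution (20 mM HEPES pH 7.4, 150 mM NaCl, 0.1% BSA). Compound in 10% DMSO buffer and XL665 anti-His/Eu anti-GST antibodies (KF buffer) were added, with 1 h at 25 °C. The 665/620 nm TR-FRET ratio gave T/C and a sigmoid-fitted IC50.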
For orientation: Time-resolved FRET reads energy transfer from a long-lived donor to a nearby acceptor.
As a reminder, the IC50 is the concentration needed to halve the response being measured. Higher therefore signals weaker potency in that assay. Regarding `CN(C)C(=O)[C@@H]1CC[C@@H](NC(=O)[C@@H]2NC3(CCC(C)(C)CC3)[C@@]3(C(=O)Nc4cc(Cl)ccc43)[C@H]2c2ccnc(Cl)n2)CO1` [Example 140, (3′R, 4′R, 5′R)-6″-chloro-4′-(2-chloropyrimidin-4-yl)-N-[(3R,6S)-6-(dimethylcarbamoyl)tetrahydro-2H-pyran-3-yl]-4,4-dimethyl-2″-oxo-1″,2″-dihydrodispiro[cyclohexane-1,2′=pyrrolidine-3′,3″-indole]-5′-carboxamide], the IC50 fell in the range of 50 to 100 nM.

`CCNC(=O)[C@@H]1CC[C@@H](NC(=O)[C@@H]2NC3(CC(CF)(CF)C3)[C@@]3(C(=O)Nc4cc(Cl)ccc43)[C@H]2c2cccc(Cl)c2F)CO1` [Example 141] registered an IC50 of 1 to 50 nM.

`COCCNC(=O)[C@@H]1CC[C@@H](NC(=O)[C@@H]2NC3(CC(CF)(CF)C3)[C@@]3(C(=O)Nc4cc(Cl)ccc43)[C@H]2c2cccc(Cl)c2F)CO1` [Example 142, (3′R, 4′S,5′R)-6″-chloro-4′-(3-chloro-2-fluorophenyl)-3,3-bis(fluoromethyl)-N-{(3R,6S)-6-[(2-methoxyethyl)carbamoyl]tetrahydro-2H-pyran-3-yl}-2″-oxo-1″,2″-dihydrodispiro[cyclobutane-1,2′-pyrrolidine-3′,3″-indole]-5′-carboxamide] displayed an IC50 of 1 to 50 nM.

Compound `COC[C@@H]1CC[C@@H](NC(=O)[C@@H]2NC3(CC(CF)(CF)C3)[C@@]3(C(=O)Nc4cc(Cl)ccc43)[C@H]2c2cccc(Cl)c2F)CO1` [Example 143, (3′R, 4′S,5′R)-6″-chloro-A′-(3-chloro-2-fluorophenyl)-3,3-bis(fluoromethyl)-N-[(3R,6S)-6-(methoxymethyl)tetrahydro-2H-pyran-3-yl]-2″-oxo-1″,2″-dihydrodispiro[cyclobutane-1,2′-pyrrolidine-3′,3″-indole]-5′-carboxamide] returned an IC50 of 50 to 100 nM.

With `CN(C)C(=O)[C@H]1C[C@H](NC(=O)[C@@H]2NC3(CC(CF)(CF)C3)[C@@]3(C(=O)Nc4cc(Cl)ccc43)[C@H]2c2cccc(Cl)c2F)C1` [Example 145, (3′R, 4′S,5′R)-6″-chloro-4′-(3-chloro-2-fluorophenyl)-N-[trans-3-(dimethylcarbamoyl)cyclobutyl]-3,3-bis(fluoromethyl)-2″-oxo-1″,2″-dihydrodispiro[cyclobutane-1,2′-pyrrolidine-3′,3″-indole]-5′-carboxamide], the IC50 was 50 to 100 nM.

Turning to `CN(C)C(=O)[C@H]1CC[C@H](NC(=O)[C@@H]2NC3(CC(CF)(CF)C3)[C@@]3(C(=O)Nc4cc(Cl)ccc43)[C@H]2c2cccc(Cl)c2F)CC1` [Example 148, (3′R, 4′S,5′R)-6″-chloro-4′-(3-chloro-2-fluorophenyl)-N-[trans-4-(dimethylcarbamoyl)cyclohexyl]-3,3-bis(fluoromethyl)-2″-oxo-1″,2″-dihydrodispiro[cyclobutane-1,2′-pyrrolidine-3′,3″-indole]-5′-carboxamide], the IC50 fell in the range of 1 to 50 nM.

With `NC(=O)C[C@@H]1CC[C@@H](NC(=O)[C@@H]2NC3(CC(CF)(CF)C3)[C@@]3(C(=O)Nc4cc(Cl)ccc43)[C@H]2c2cccc(Cl)c2F)CO1` [Example 149, (3′R, 4′S,5′R)—N-[(3R,6S)-6-(2-amino-2-oxoethyl)tetrahydro-2H-pyran-3-yl]-6″-chloro-4′-(3-chloro-2-fluorophenyl)-3,3-bis(fluoromethyl)-2″-oxo-1″,2″-dihydrodispiro[cyclobutane-1,2′-pyrrolidine-3′,3″-indole]-5′-carboxamide], the IC50 lay within 50 to 100 nM.

`CNC(=O)C[C@@H]1CC[C@@H](NC(=O)[C@@H]2NC3(CCC(C)(C)CC3)[C@@]3(C(=O)Nc4cc(Cl)ccc43)[C@H]2c2ccnc(Cl)c2F)CO1` [Example 150, (3′R, 4′S,5′R)-6″-chloro-4′-(2-chloro-3-fluoropyridin-4-yl)-4,4-dimethyl-N-{(3R,6S)-6-[2-(methylamino)-2-oxoethyl]tetrahydro-2H-pyran-3-yl}-2″-oxo-1″,2″-dihydrodispiro[cyclohexane-1,2′-pyrrolidine-3′,3″-indole]-5′-carboxamide]: the IC50 lay within 1 to 50 nM.

With `CNC(=O)C[C@@H]1CC[C@@H](NC(=O)[C@@H]2NC3(CC(CF)(CF)C3)[C@@]3(C(=O)Nc4cc(Cl)ccc43)[C@H]2c2cccc(Cl)c2F)CO1` [Example 151, (3′R, 4′S,5′R)-6″-chloro-4′-(3-chloro-2-fluorophenyl)-3,3-bis(fluoromethyl)-N-{(3R,6S)-6-[2-(methylamino)-2-oxoethyl]tetrahydro-2H-pyran-3-yl}=2″-oxo-1″,2″-dihydrodispiro[cyclobutane-1,2′-pyrrolidine-3′,3′-indole]-5′-carboxamide], the IC50 was in the range of 1 to 50 nM.

For the compound `CN(C)C(=O)C[C@@H]1CC[C@@H](NC(=O)[C@@H]2NC3(CCC(C)(C)CC3)[C@@]3(C(=O)Nc4cc(Cl)ccc43)[C@H]2c2ccnc(Cl)c2F)CO1` [Example 152, (3′R, 4′S,5′R)-6″-chloro-4′-(2-chloro-3-fluoropyridin-4-yl)-N-{(3R,6S)-6-[2-(dimethylamino)-2-oxoethyl]tetrahydro-2H-pyran-3-yl}-4,4-dimethyl-2″-oxo-1″,2″-dihydrodispiro[cyclohexane-1,2′-pyrrolidine-3′,3″-indole]-5′-carboxamide], the IC50 lay within 1 to 50 nM.

Compound `CN(C)C(=O)C[C@@H]1CC[C@@H](NC(=O)[C@@H]2NC3(CC(CF)(CF)C3)[C@@]3(C(=O)Nc4cc(Cl)ccc43)[C@H]2c2cccc(Cl)c2F)CO1` [Example 153, (3′R, 4′S,5′R)-6″-chloro-4′-(3-chloro-2-fluorophenyl)-N-{(3R,6S)-6-[2-(dimethylamino)-2-oxoethyl]tetrahydro-2H-pyran-3-yl}-3,3-bis(fluoromethyl)-2″-oxo-1″,2″-dihydrodispiro[cyclobutane-1,2′-pyrrolidine-3′,3′-indole]-5′-carboxamide] yielded an IC50 of 1 to 50 nM.

Compound `CC1(C)CCC2(CC1)N[C@@H](C(=O)N[C@H]1CC[C@H](c3nncs3)CC1)[C@H](c1ccnc(Cl)c1F)[C@]21C(=O)Nc2cc(Cl)ccc21` [Example 155, (3′R, 4′S,5′R)-6″-chloro-4′-(2-chloro-3-fluoropyridin-4-yl)-4,4-dimethyl-2″-oxo-N-[trans-4-(1,3,4-thiadiazol-2-yl)cyclohexyl]-1″,2″-dihydrodispiro[cyclohexane-1,2′-pyrrolidine-3′,3″-indole]-5′-carboxamide] yielded an IC50 of 50 to 100 nM.

`NC(=O)[C@@H]1CC[C@@H](NC(=O)[C@@H]2NC3(CC(CF)(CF)C3)[C@@]3(C(=O)Nc4cc(Cl)ccc43)[C@H]2c2ccnc(Cl)c2F)CO1` [Example 158, (3′R, 4′S,5′R)—N-[(3R,6S)-6-carbamoyltetrahydro-2H-pyran-3-yl]-6″-chloro-4′-(2-chloro-3-fluoropyridin-4-yl)-3,3-bis(fluoromethyl)-2″-oxo-1″,2″-dihydrodispiro[cyclobutane-1,2′-pyrrolidine-3′,3″-indole]-5′-carboxamide] came in with an IC50 of 1 to 50 nM.

`COCc1nnc([C@H]2CC[C@H](NC(=O)[C@@H]3NC4(CCC(C)(C)CC4)[C@@]4(C(=O)Nc5cc(Cl)ccc54)[C@H]3c3ccnc(Cl)c3F)CC2)o1` [Example 159]: the IC50 is 50 to 100 nM.

As to `O=C(N[C@@H]1CC[C@@H](CO)OC1)[C@@H]1NC2(CC(CF)(CF)C2)[C@@]2(C(=O)Nc3cc(Cl)c(F)cc32)[C@H]1c1ccnc(Cl)c1F` [Example 163, (3′R, 4′S,5′R)-6″-chloro-4′-(2-chloro-3-fluoropyridin-4-yl)-5″-fluoro-3,3-bis(fluoromethyl)-N-[(3R,6S)-6-(hydroxymethyl)tetrahydro-2H-pyran-3-yl]-2″-oxo-1″,2″-dihydrodispiro[cyclobutane-1,2′-pyrrolidine-3′,3″-indole]-5′-carboxamide], the IC50 fell in the range of 50 to 100 nM.

With `CC1(C)CCC2(CC1)N[C@@H](C(=O)N[C@@H]1CC[C@@H](CNS(C)(=O)=O)OC1)[C@H](c1ccnc(Cl)c1F)[C@]21C(=O)Nc2cc(Cl)ccc21` [Example 166, (3′R, 4′S,5′R)-6″-chloro-4′-(2-chloro-3-fluoropyridin-4-yl)-4,4-dimethyl-N-[(3R,6S)-6-{[(methylsulfonyl)amino]methyl}tetrahydro-2H-pyran-3-yl]-2″-oxo-1″,2″-dihydrodispiro[cyclohexane-1,2′-pyrrolidine-3′,3″-indole]-5′-carboxamide], the IC50 lay within 50 to 100 nM.

On to `CN(C)C(=O)[C@@H]1CC[C@@H](NC(=O)[C@@H]2NC3(CC(CF)(CF)C3)[C@@]3(C(=O)Nc4cc(Cl)ccc43)[C@H]2c2ccnc(Cl)c2F)CO1` [Example 167, (3′R, 4′S,5′R)-6″-chloro-4′-(2-chloro-3-fluoropyridin-4-yl)-N-[(3R,6S)-6-(dimethylcarbamoyl)tetrahydro-2H-pyran-3-yl]-3,3-bis(fluoromethyl)-2″-oxo-1′″, 2′″-dihydrodispiro[cyclobutane-1,2′-pyrrolidine-3′,3″-indole]-5″-carboxamide], for which the IC50 fell in the range of 1 to 50 nM.

The compound `O=C(N[C@@H]1CC[C@@H](CO)OC1)[C@@H]1NC2(CC(CF)(CF)C2)[C@@]2(C(=O)Nc3cc(Cl)ccc32)[C@H]1c1cc(Cl)cc(Cl)c1` [Example 169, (3′R, 4′R, 5′R)-6″-chloro-4′-(3,5-dichlorophenyl)-3,3-bis(fluoromethyl)-N-[(3R,6S)-6-(hydroxymethyl)tetrahydro-2H-pyran-3-yl]-2″-oxo-1″,2″-dihydrodispiro[cyclobutane-1,2′-pyrrolidine-3′,3″-indole]-5′-carboxamide] yielded an IC50 of 50 to 100 nM.

Consider `C[C@@H](O)[C@@H]1CC[C@@H](NC(=O)[C@@H]2NC3(CC(CF)(CF)C3)[C@@]3(C(=O)Nc4cc(Cl)ccc43)[C@H]2c2ccnc(Cl)c2F)CO1` [Example 170, (3′R, 4′S,5′R)-6″-chloro-4′-(2-chloro-3-furopyridinyl-4-yl)-3,3-bis(fluoromethyl)-N-{(3R,6S)-6-[(1R)-1-hydroxyethyl]tetrahydro-2H-pyran-3-yl}-2″-oxo-1″,2″-dihydrodispiro[cyclobutane-1,2′-pyrrolidine-3′,3′-indole]-5′-carboxamide], for which the IC50 fell in the range of 50 to 100 nM.
